These are literature values, as cited in US4127534A, “Novel tripeptides, intermediates therefor and pharmaceutical compositions and methods employing said tripeptides” (priority 1977, dated 1978).

Series [1] deals with partially purified brain opiate receptor sites.
The conditions of series [2]: injected directly into the brain of the rat.

As for “H-Tyr-Gly-Gly-Phe-Met-OH [methionine enkephalin]”, the “binding to partially purified brain opiate receptor sites” value in series [1] is given as “binds stereo-specifically”. Further, in series [2], the analgesic activity entry is on record as “only weak analgesic agent of short duration”.
